Literature values, collected in patent publication US20250354118A1, “COMPOSITIONS AND METHODS FOR NK CELL DIFFERENTIATION” (Umoja Biopharma, Inc., priority 2022, published 2025).

Target: PSMA-positive human prostate cancer cells (Homo sapiens, UniProt Q04609)
Conditions: Kularatne et al., Mol Pharm. 2009

PSMA-positive human prostate cancer cells, sequence (Q04609 whole entry): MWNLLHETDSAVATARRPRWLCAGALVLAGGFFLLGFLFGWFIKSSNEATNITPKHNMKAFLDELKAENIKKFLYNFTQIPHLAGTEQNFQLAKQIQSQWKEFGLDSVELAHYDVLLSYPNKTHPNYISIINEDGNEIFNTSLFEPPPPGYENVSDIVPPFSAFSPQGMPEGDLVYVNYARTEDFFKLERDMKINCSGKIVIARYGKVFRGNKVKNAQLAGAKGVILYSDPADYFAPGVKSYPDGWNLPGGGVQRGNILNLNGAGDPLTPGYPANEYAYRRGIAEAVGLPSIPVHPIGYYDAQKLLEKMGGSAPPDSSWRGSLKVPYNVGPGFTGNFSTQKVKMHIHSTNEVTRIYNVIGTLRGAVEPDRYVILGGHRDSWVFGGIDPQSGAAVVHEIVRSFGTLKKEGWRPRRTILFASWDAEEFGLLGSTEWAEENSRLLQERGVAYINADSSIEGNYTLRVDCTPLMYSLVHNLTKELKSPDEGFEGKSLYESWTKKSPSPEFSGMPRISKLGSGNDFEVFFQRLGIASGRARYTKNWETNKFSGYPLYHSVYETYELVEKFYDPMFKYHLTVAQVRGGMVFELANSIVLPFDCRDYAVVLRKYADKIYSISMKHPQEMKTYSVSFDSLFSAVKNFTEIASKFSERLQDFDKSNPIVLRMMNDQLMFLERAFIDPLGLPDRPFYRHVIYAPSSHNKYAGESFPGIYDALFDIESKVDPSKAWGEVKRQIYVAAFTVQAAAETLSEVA

Kd: 14 nM
SMILES: O=C(O)CC[C@H](NC(=O)N[C@@H](CCC(=O)O)C(=O)O)C(=O)O [DUPA]
